Structures can show the parent of a compound that is named as a salt. Where two headings read alike, the source gives them in different places.
Legend:
[1] = test system: NCI-H292 lung cancer cells; experiment: FDA drug screening, complete media vs cholesterol-free media without statin (TABLE 1); assay type: cell-based, human
[2] = test system: NCI-H292 lung cancer cells; experiment: FDA drug screening, complete media vs cholesterol-free media with simvastatin (TABLE 2); assay type: cell-based, human
[3] = Complete minus Cholesterol-free, >0 enhanced anti-cancer activity, about 0 neutral, <0 antagonist
[4] = NCI-H292 cells, cholesterol-free media without statin
[5] = NCI-H292 cells, cholesterol-free media with simvastatin 0.04 μM, cell growth value in FDA drug screen
[6] = NCI-H292 cells, complete media, cell growth value in FDA drug screen
[7] = complete media minus cholesterol-free media + simvastatin, >0 enhanced anti-cancer activity, about 0 neutral, <0 antagonist
[8] = NCI-H292 cells, cholesterol-free media without statin, FDA drug library screen
[9] = complete vs cholesterol-free media, >0 enhanced anti-cancer activity, about 0 neutral, <0 antagonist
[10] = NCI-H292 cells, cholesterol-free media with simvastatin 0.04 μM, FDA drug library screen (TABLE 2)
[11] = NCI-H292 cells, complete media, FDA drug library screen (TABLE 2)
[12] = complete media minus cholesterol-free media + simvastatin (0.04 μM), >0 enhanced anti-cancer activity, about 0 neutral, <0 antagonist
[13] = complete vs cholesterol-free media, greater than 0 enhanced anti-cancer activity, about 0 neutral, below 0 antagonists
[14] = NCI-H292 cells, FDA library drug in cholesterol-free media with simvastatin 0.04 μM
[15] = NCI-H292 cells, FDA library drug in complete media
[16] = complete media vs cholesterol-free media + simvastatin (0.04 μM), >0 enhanced anti-cancer activity, about 0 neutral, <0 antagonist
[17] = Complete minus Cholesterol-free, greater than 0 enhanced anti-cancer activity, about 0 neutral, below 0 antagonist
[18] = NCI-H292 cells, FDA drug library screen, cholesterol-free media without statin
[19] = NCI-H292 cells, FDA drug library screen, complete media
[20] = NCI-H292 cells, complete media, FDA drug library screen
[21] = NCI-H292 cells, FDA drug library screen, cholesterol-free media with simvastatin 0.04 μM
[22] = NCI-H292 cells, drug in cholesterol-free media with simvastatin 0.04 μM
[23] = NCI-H292 cells, drug in complete media
[24] = Complete minus Cholesterol-free, […]
[25] = NCI-H292 cells in cholesterol-free media without statin
[26] = complete media vs cholesterol-free media + simvastatin (0.04 μM), […]
[27] = NCI-H292 cells in complete media

O=C(O)CC(O)(CC(=O)O)C(=O)O
Difference [1, 3]: −0.20 | Cholesterol-free [1, 4]: 1.776 | Complete ([1]; NCI-H292 cells, complete media): 1.574 | Cholesterol-free media + simvastatin (0.04 μM) [2, 5]: 0.864 | Complete Media [2, 6]: 0.9089 | Difference [2, 7]: 0.04

CC(=O)Oc1ccccc1C(=O)Nc1ncc([N+](=O)[O-])s1 [Nitazoxanide]
Cholesterol-free [1, 8]: 1.033 | Difference [1, 9]: 0.12 | Cholesterol-free media + simvastatin (0.04 μM) [2, 10]: 1.209 | Complete Media [2, 11]: 1.209 | Difference [2, 12]: 0.00

OC[C@@H](O)[C@@H](O[C@H]1O[C@H](CO)[C@@H](O)[C@H](O)[C@H]1O)[C@H](O)[C@@H](O)CO [Maltitol]
Cholesterol-free [1, 4]: 1.093 | Complete ([1]; NCI-H292 cells, complete media): 0.7088 | Difference [1, 13]: −0.38 | Cholesterol-free media + simvastatin (0.04 μM) [2, 14]: 1.264 | Complete Media [2, 15]: 0.9377 | Difference [2, 16]: −0.33

O=C(Nc1cccc2c(=O)cc(-c3nnn[nH]3)oc12)c1ccc(OCCCCc2ccccc2)cc1 [Pranlukast (hemihydrate)]
Difference [1, 17]: −0.10 | Cholesterol-free [1, 18]: 1.075 | Complete [1, 19]: 0.9755 | Cholesterol-free media + simvastatin (0.04 μM) [2, 5]: 1.189 | Complete Media [2, 6]: 1.285 | Difference [2, 7]: 0.10

CCC(=O)O[C@]1(C(C)=O)CC[C@H]2[C@@H]3CCC4=CC(=O)C=C[C@]4(C)[C@H]3[C@@H](O)C[C@@]21C [Deprodone propionate]
Cholesterol-free [1, 8]: 0.6965 | Complete [1, 20]: 0.786 | Difference [1, 9]: 0.09 | Cholesterol-free media + simvastatin (0.04 μM) [2, 5]: 0.6417 | Complete Media [2, 6]: 0.6907 | Difference [2, 7]: 0.05

Nc1ccc(S(=O)(=O)Nc2ccnn2-c2ccccc2)cc1 [Sulfaphenazole]
Difference [1, 17]: −0.18 | Cholesterol-free [1, 18]: 1.174 | Complete [1, 19]: 0.9989 | Cholesterol-free media + simvastatin (0.04 μM) [2, 21]: 1.123 | Complete Media [2, 19]: 1.024 | Difference [2, 16]: −0.10

O=c1ccc2ccc(O)c(O)c2o1 [Daphnetin]
Difference [1, 3]: −0.27 | Cholesterol-free [1, 4]: 1.207 | Complete ([1]; NCI-H292 cells, complete media): 0.9359 | Cholesterol-free media + simvastatin (0.04 μM) [2, 22]: 1.124 | Complete Media [2, 23]: 0.9139 | Difference [2, 16]: −0.21

CCn1nc(C(=O)O)c(=O)c2cc3c(cc21)OCO3 [Cinoxacin]
Difference [1, 3]: −0.05 | Cholesterol-free [1, 8]: 0.9965 | Complete [1, 20]: 0.951 | Cholesterol-free media + simvastatin (0.04 μM) [2, 5]: 0.9547 | Complete Media [2, 6]: 0.9782 | Difference [2, 7]: 0.02

O=C(O)/C=C/c1ccc(O)c(O)c1 [Caffeic acid]
Difference [1, 3]: 0.01 | Cholesterol-free [1, 8]: 0.885 | Complete [1, 20]: 0.8915 | Cholesterol-free media + simvastatin (0.04 μM) [2, 21]: 0.9424 | Complete Media [2, 19]: 0.8032 | Difference [2, 16]: −0.14

COc1ccc([C@@H]2Sc3ccccc3N(CCN(C)C)C(=O)[C@@H]2OC(C)=O)cc1 [Diltiazem (hydrochloride)]
Cholesterol-free [1, 4]: 1.001 | Complete ([1]; NCI-H292 cells, complete media): 0.6844 | Difference [1, 13]: −0.32 | Cholesterol-free media + simvastatin (0.04 μM) [2, 21]: 1.317 | Complete Media [2, 19]: 1.159 | Difference [2, 16]: −0.16

Miconazole (nitrate)
Cholesterol-free [1]: 0.9239 | Complete [1]: 0.8136 | Difference [1]: −0.11 | Cholesterol-free media + simvastatin (0.04 μM) [2]: 0.4137 | Complete Media [2]: 0.8009 | Difference [2]: 0.39

CC(C)COCC(CN(Cc1ccccc1)c1ccccc1)N1CCCC1 (stereo not shown) [Bepridil (hydrochloride hydrate)]
Difference [1, 3]: −0.25 | Cholesterol-free [1, 4]: 1.151 | Complete ([1]; NCI-H292 cells, complete media): 0.8961 | Cholesterol-free media + simvastatin (0.04 μM) [2, 21]: 1.501 | Complete Media [2, 19]: 1.762 | Difference [2, 7]: 0.26

Cc1oc(=O)oc1COC(=O)[C@@H]1N2C(=O)[C@@H](NC(=O)[C@H](N)c3ccccc3)[C@H]2SC1(C)C [Lenampicillin (hydrochloride)]
Difference [1, 17]: −0.08 | Cholesterol-free [1, 18]: 1.101 | Complete [1, 19]: 1.02 | Cholesterol-free media + simvastatin (0.04 μM) [2, 21]: 1.05 | Complete Media [2, 19]: 0.9118 | Difference [2, 16]: −0.14

CN1[C@@H]2CC[C@H]1C[C@@H](OC(=O)c1c[nH]c3ccccc13)C2 [Tropisetron (Hydrochloride)]
Difference [1, 3]: −0.30 | Cholesterol-free [1, 4]: 1.166 | Complete ([1]; NCI-H292 cells, complete media): 0.8628 | Cholesterol-free media + simvastatin (0.04 μM) [2, 21]: 1.118 | Complete Media [2, 19]: 0.9866 | Difference [2, 16]: −0.13

CCOC(=O)[C@H](CCc1ccccc1)N[C@@H](C)C(=O)N1C(=O)N(C)C[C@H]1C(=O)O [Imidapril (hydrochloride)]
Cholesterol-free [1, 8]: 0.9489 | Complete [1, 20]: 1.458 | Difference [1, 9]: 0.51 | Cholesterol-free media + simvastatin (0.04 μM) [2, 14]: 1.282 | Complete Media [2, 15]: 0.8523 | Difference [2, 16]: −0.43

CCN(CC)CCOc1ccc2c(c1)C(=O)c1cc(OCCN(CC)CC)ccc1-2 [Tilorone (dihydrochloride)]
Difference [1, 3]: −0.30 | Cholesterol-free [1, 4]: 1.404 | Complete ([1]; NCI-H292 cells, complete media): 1.104 | Cholesterol-free media + simvastatin (0.04 μM) [2, 22]: 1.099 | Complete Media [2, 23]: 0.8748 | Difference [2, 16]: −0.22

C[C@]12CC[C@@H]3c4ccc(O)cc4C[C@@H](CCCCCCCCC[S+]([O-])CCCC(F)(F)C(F)(F)F)[C@H]3[C@@H]1CC[C@@H]2O (stereo partly shown) [Fulvestrant]
Difference [1, 3]: −0.29 | Cholesterol-free [1, 4]: 1.364 | Complete ([1]; NCI-H292 cells, complete media): 1.074 | Cholesterol-free media + simvastatin (0.04 μM) [2, 21]: 1.051 | Complete Media [2, 19]: 0.9579 | Difference [2, 16]: −0.09

O=C(O)[C@@H]1CCCN1 [L-Proline]
Cholesterol-free [1]: 1.37 | Complete [1]: 0.9909 | Difference [1]: −0.38 | Cholesterol-free media + simvastatin (0.04 μM) [2]: 1.794 | Complete Media [2]: 1.088 | Difference [2]: −0.71

CC1(C)[C@@H](O)CC[C@]2(C)[C@H]3C(=O)C=C4[C@@H]5C[C@@](C)(C(=O)O)CC[C@]5(C)CC[C@@]4(C)[C@]3(C)CC[C@@H]12 [18β-Glycyrrhetinic acid]
Difference [1, 17]: −0.09 | Cholesterol-free [1, 18]: 1.192 | Complete [1, 19]: 1.102 | Cholesterol-free media + simvastatin (0.04 μM) [2, 21]: 0.8991 | Complete Media [2, 19]: 0.8018 | Difference [2, 16]: −0.10

c1ccc2c(CC3=NCCN3)cccc2c1 [Naphazoline (hydrochloride)]
Difference [1, 3]: −0.26 | Cholesterol-free [1, 4]: 1.189 | Complete ([1]; NCI-H292 cells, complete media): 0.9279 | Cholesterol-free media + simvastatin (0.04 μM) [2, 10]: 0.7495 | Complete Media [2, 11]: 0.6802 | Difference [2, 12]: −0.07

Lumateperone (tosylate)
Difference [1, 24]: −0.84 | Cholesterol-free [1, 25]: 1.615 | Cholesterol-free media + simvastatin (0.04 μM) [2, 10]: 1.37 | Complete Media [2, 11]: 1.357 | Difference ([2]; complete media minus cholesterol-free media + simvastatin (0.04 μM), […]): −0.01

Selumetinib (sulfate)
Difference [1, 24]: −0.06 | Cholesterol-free [1, 8]: 0.3932 | Complete [1, 20]: 0.3287 | Cholesterol-free media + simvastatin (0.04 μM) [2, 21]: 0.2941 | Difference [2, 26]: −0.10

N[C@@H](Cc1c[nH]cn1)C(=O)O [L-Histidine]
Difference ([1]; Complete minus Cholesterol-free, greater than 0 enhanced anti-cancer activity, about 0 neutral, below 0 antagonists): −0.88 | Cholesterol-free [1, 25]: 2.131 | Complete [1, 27]: 1.254 | Cholesterol-free media + simvastatin (0.04 μM) [2, 5]: 1.86 | Complete Media [2, 6]: 1.878 | Difference [2, 7]: 0.02

Cc1cnc(NC(=O)C2=C(O)c3ccccc3S(=O)(=O)N2C)s1 [Meloxicam]
Complete ([1]; NCI-H292 cells, complete media): 0.7862 | Difference [1, 13]: −0.39 | Cholesterol-free media + simvastatin (0.04 μM) [2, 5]: 1.111 | Difference [2, 7]: 0.12

O=C([O-])[C@H](O)[C@@H](O)[C@H](O)[C@H](O)CO.[Na+] [Gluconate (sodium)]
Difference [1, 24]: −0.62 | Cholesterol-free [1, 25]: 1.575 | Complete [1, 27]: 0.95 | Cholesterol-free media + simvastatin (0.04 μM) [2, 14]: 1.406 | Complete Media [2, 15]: 0.9873 | Difference [2, 26]: −0.42

C[C@H](CCC(=O)O)[C@H]1CC[C@H]2[C@@H]3C(=O)C[C@@H]4CC(=O)CC[C@]4(C)[C@H]3CC(=O)[C@]12C [Dehydrocholic acid]
Difference [1, 3]: −0.25 | Cholesterol-free [1, 4]: 1.151 | Complete ([1]; NCI-H292 cells, complete media): 0.9012 | Cholesterol-free media + simvastatin (0.04 μM) [2, 5]: 0.8533 | Complete Media [2, 6]: 0.9003 | Difference [2, 7]: 0.05

CN(C)CCC=C1c2ccccc2CCc2ccccc21 [Amitriptyline (hydrochloride)]
Cholesterol-free [1, 8]: 0.8567 | Complete [1, 20]: 1.344 | Difference [1, 9]: 0.49 | Cholesterol-free media + simvastatin (0.04 μM) [2, 21]: 0.9551 | Complete Media [2, 19]: 0.8184 | Difference [2, 16]: −0.14

CC(=O)OCC(=O)[C@@]1(O)CC[C@H]2[C@@H]3CCC4=CC(=O)C=C[C@]4(C)[C@H]3[C@@H](O)C[C@@]21C [Prednisolone acetate]
Cholesterol-free [1, 4]: 0.9263 | Complete ([1]; NCI-H292 cells, complete media): 0.6003 | Difference [1, 13]: −0.33 | Cholesterol-free media + simvastatin (0.04 μM) [2, 21]: 0.7463 | Complete Media [2, 19]: 0.6367 | Difference [2, 16]: −0.11

Mosapride (citrate)
Cholesterol-free [1, 8]: 0.9953 | Complete [1, 20]: 1.241 | Difference [1, 9]: 0.25 | Cholesterol-free media + simvastatin (0.04 μM) [2, 21]: 0.963 | Complete Media [2, 19]: 0.8629 | Difference [2, 16]: −0.10

Reference: US20250144067A1, “PERSONALIZED STARVATION THERAPY FOR CANCER” (Faeth Therapeutics, Inc., priority 2021, published 2025)
